Common to all, as to assay type: functional, organism-based
What all share (conditions): dose 500.0 µg/kg

Test [1] has as its system Mus musculus. Briefly: Hypoglycemic activity in sixteen hrs fasted wild type C57BL/6 mouse assessed as reduction in blood glucose level at 500 microg/kg, ip followed by oral glucose at 2 g/Kg and measured for 120 mins by OGTT.
Test [2] concerns Mus musculus. Briefly: Hypoglycemic activity in sixteen hrs fasted wild type C57BL/6 mouse assessed as reduction in blood glucose level at 500 microg/kg, ip followed by oral glucose at 2 g/Kg and measured for 150 mins by OGTT.
The subject of test [3] is Mus musculus. Briefly: Hypoglycemic activity in sixteen hrs fasted wild type C57BL/6 mouse assessed as reduction in glucose concentration at 500 microg/kg, ip followed by oral glucose at 2 g/Kg and measured upto 150 mins by OGTT.
Test [4] relates to Mus musculus. Briefly: Hypoglycemic activity in sixteen hrs fasted wild type C57BL/6 mouse assessed as increase in insulin concentration at 500 microg/kg, ip followed by oral glucose at 2 g/Kg and measured upto 150 mins by OGTT.

Activity calls are given as the source filed them. The calls are words filed in the database; no cut-off is given here.

Consider `CCCCCCCCCCCCCCCC(=O)NCCOCCOCC(=O)N[C@@H](CSc1[nH]c2ccccc2c1C[C@H](NC(=O)[C@H](C)NC(=O)[C@@H](NC(=O)[C@H](Cc1ccccc1)NC(=O)[C@H](CCC(=O)O)NC(=O)[C@H](CCCCN)NC(=O)[C@H](C)NC(=O)[C@H](C)NC(=O)[C@H](CCC(N)=O)NC(=O)CNC(=O)[C@H](CCC(=O)O)NC(=O)[C@H](CC(C)C)NC(=O)[C@H](Cc1ccc(O)cc1)NC(=O)[C@H](CO)NC(=O)[C@H](CO)NC(=O)[C@@H](NC(=O)[C@H](CC(=O)O)NC(=O)[C@H](CO)NC(=O)[C@@H](NC(=O)[C@H](Cc1ccccc1)NC(=O)[C@@H](NC(=O)CNC(=O)[C@H](CCC(=O)O)NC(=O)[C@H](C)NC(=O)[C@@H](N)Cc1cnc[nH]1)[C@@H](C)O)[C@@H](C)O)C(C)C)[C@@H](C)CC)C(=O)N[C@@H](CC(C)C)C(=O)N[C@H](C(=O)N[C@@H](CCCCN)C(=O)NCC(=O)N[C@@H](CCCNC(=N)N)C(=O)NCC(=O)O)C(C)C)C(N)=O`, for which the outcome with Mus musculus [1] and in the test on Mus musculus [2] was Active.

In the case of `CCCCCCCCCCCCCCCC(=O)NCCOCCOCCOCCOCCOCCOCC(=O)N[C@@H](CSc1[nH]c2ccccc2c1C[C@H](NC(=O)[C@H](C)NC(=O)[C@@H](NC(=O)[C@H](Cc1ccccc1)NC(=O)[C@H](CCC(=O)O)NC(=O)[C@H](CCCCN)NC(=O)[C@H](C)NC(=O)[C@H](C)NC(=O)[C@H](CCC(N)=O)NC(=O)CNC(=O)[C@H](CCC(=O)O)NC(=O)[C@H](CC(C)C)NC(=O)[C@H](Cc1ccc(O)cc1)NC(=O)[C@H](CO)NC(=O)[C@H](CO)NC(=O)[C@@H](NC(=O)[C@H](CC(=O)O)NC(=O)[C@H](CO)NC(=O)[C@@H](NC(=O)[C@H](Cc1ccccc1)NC(=O)[C@@H](NC(=O)CNC(=O)[C@H](CCC(=O)O)NC(=O)[C@H](C)NC(=O)[C@@H](N)Cc1cnc[nH]1)[C@@H](C)O)[C@@H](C)O)C(C)C)[C@@H](C)CC)C(=O)N[C@@H](CC(C)C)C(=O)N[C@H](C(=O)N[C@@H](CCCCN)C(=O)NCC(=O)N[C@@H](CCCNC(=N)N)C(=O)NCC(=O)O)C(C)C)C(N)=O`, the outcome in the test with Mus musculus [1] and with Mus musculus [2] was Active.

In the case of `CC[C@H](C)[C@H](NC(=O)[C@H](Cc1ccccc1)NC(=O)[C@H](CCC(=O)O)NC(=O)[C@H](CCCCN)NC(=O)[C@H](C)NC(=O)[C@H](C)NC(=O)[C@H](CCC(N)=O)NC(=O)CNC(=O)[C@H](CCC(=O)O)NC(=O)[C@H](CC(C)C)NC(=O)[C@H](Cc1ccc(O)cc1)NC(=O)[C@H](CO)NC(=O)[C@H](CO)NC(=O)[C@@H](NC(=O)[C@H](CC(=O)O)NC(=O)[C@H](CO)NC(=O)[C@@H](NC(=O)[C@H](Cc1ccccc1)NC(=O)[C@@H](NC(=O)CNC(=O)[C@H](CCC(=O)O)NC(=O)[C@H](C)NC(=O)[C@@H](N)Cc1c[nH]cn1)[C@@H](C)O)[C@@H](C)O)C(C)C)C(=O)N[C@@H](C)C(=O)N[C@@H](Cc1c[nH]c2ccccc12)C(=O)N[C@@H](CC(C)C)C(=O)N[C@H](C(=O)N[C@@H](CCCCN)C(=O)NCC(=O)N[C@@H](CCCN=C(N)N)C(=O)NCC(=O)O)C(C)C`, the result in the test with Mus musculus [3] and in the test with Mus musculus [4] was Active.

For the origin of these results see ChEMBL document CHEMBL5120936, “S-Protected Cysteine Sulfoxide-Enabled Tryptophan-Selective Modification with Application to Peptide Lipidation” (ACS Med Chem Lett, 2022).
